Measured values taken from article PMC3637861 (Journal of muscle research and cell motility, 2013).

Target: Recombinant chicken cardiac troponin C (cTnC) (Gallus gallus, UniProt P09860)
Assay: intrinsic tyrosine fluorescence quenching titration, hyperbolic plus linear fit
Type: binding

- Kd: 65 µM
Compound: O=C(O[C@@H]1Cc2c(O)cc(O)cc2O[C@@H]1c1cc(O)c(O)c(O)c1)c1cc(O)c(O)c(O)c1 [EGCg]
